# BindingDB's records for patent US20250333410 (Xizang Haisco Pharmaceutical, 2025)
# Target: Potassium voltage-gated channel subfamily H member 2 (Homo sapiens, UniProt Q12809)
# Assay: Test for hERG Potassium Ion Channel
# Source text: Experimental method: in CHO (Chinese Hamster Ovary) cells stably expressing hERG potassium channel, the whole cell patch-clamp technique was used to record hERG potassium channel current at room temperature. The glass microelectrode was made of a glass electrode blank (BF150-86-10, Sutter) by a puller. The tip resistance after filling the liquid in the electrode was about 2-5 MΩ. The glass microelectrode can be connected to the patch-clamp amplifier by inserting the glass microelectrode into an amplifier probe. The clamping voltage and data recording were controlled and recorded by the pClamp 10 software through a computer. The sampling frequency was 10 kHz, and the filtering frequency was 2 kHz. After the whole cell records were obtained, the cells were clamped at −80 mV, and the step voltage that induced the hERG potassium current (IhERG) was depolarized from −80 mV to +20 mV for 2 s, then repolarized to −50 mV, and returned to −80 mV after 1 s. This voltage stimulation was given every 10 s, and the administration process was started after the hERG potassium current was confirmed to be stable (at least 1 minute). The compound was administered for at least 1 minute at each test concentration, and at least 2 cells (n≥2) were tested at each concentration.
# Potassium voltage-gated channel subfamily H member 2, sequence (Q12809 whole entry): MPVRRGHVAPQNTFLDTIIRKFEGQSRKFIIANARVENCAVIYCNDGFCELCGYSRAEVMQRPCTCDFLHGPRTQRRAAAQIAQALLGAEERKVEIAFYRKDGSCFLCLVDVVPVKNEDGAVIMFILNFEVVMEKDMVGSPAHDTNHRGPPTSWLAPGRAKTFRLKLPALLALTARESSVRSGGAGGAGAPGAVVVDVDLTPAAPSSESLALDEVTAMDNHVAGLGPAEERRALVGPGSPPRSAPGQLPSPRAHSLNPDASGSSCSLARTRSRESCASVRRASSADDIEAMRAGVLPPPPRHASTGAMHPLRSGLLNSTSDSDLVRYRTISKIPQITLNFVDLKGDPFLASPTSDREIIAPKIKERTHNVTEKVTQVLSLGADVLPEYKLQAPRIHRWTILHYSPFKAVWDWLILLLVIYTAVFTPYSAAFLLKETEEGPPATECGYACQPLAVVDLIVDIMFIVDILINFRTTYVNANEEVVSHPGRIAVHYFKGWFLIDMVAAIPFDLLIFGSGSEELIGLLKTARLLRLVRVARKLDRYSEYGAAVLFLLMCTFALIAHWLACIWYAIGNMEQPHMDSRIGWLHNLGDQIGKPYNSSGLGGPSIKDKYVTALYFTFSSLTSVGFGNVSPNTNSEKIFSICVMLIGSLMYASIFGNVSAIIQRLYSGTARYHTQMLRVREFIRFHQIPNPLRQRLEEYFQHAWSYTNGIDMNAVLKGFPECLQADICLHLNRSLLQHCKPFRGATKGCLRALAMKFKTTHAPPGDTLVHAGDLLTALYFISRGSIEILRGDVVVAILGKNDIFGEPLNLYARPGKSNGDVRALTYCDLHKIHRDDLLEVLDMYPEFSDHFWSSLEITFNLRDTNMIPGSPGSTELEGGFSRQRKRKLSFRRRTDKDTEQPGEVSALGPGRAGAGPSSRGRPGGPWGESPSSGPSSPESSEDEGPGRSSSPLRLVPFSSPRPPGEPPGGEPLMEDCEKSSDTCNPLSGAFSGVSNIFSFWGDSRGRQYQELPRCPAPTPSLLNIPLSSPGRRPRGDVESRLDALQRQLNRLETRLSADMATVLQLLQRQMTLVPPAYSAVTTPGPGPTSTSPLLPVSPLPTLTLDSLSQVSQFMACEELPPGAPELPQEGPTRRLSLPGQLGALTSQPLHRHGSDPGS
row,SMILES,IC50
1,"CNC(=O)COc1cc2cc(Nc3nc(N4CCC(CN5CCC(c6cccc7c6n(C)c(=O)n7C6CCC(=O)NC6=O)CC5)CC4)ncc3Cl)ccc2n(C)c1=O (stereo unspecified) [US20250333410, Compound 35]",> 30 µM
2,"CNC(=O)COc1cc2cc(Nc3nc(N4CCN(CC5CCN(c6ccc7c8c(oc7c6)C(=O)N(C6CCC(=O)NC6=O)C8)CC5)CC4)ncc3Cl)ccc2n(C)c1=O (stereo unspecified) [US20250333410, Compound 46]",> 30 µM
3,"CNC(=O)COc1cc2cc(Nc3nc(N4CCN(CC5CC6(CCN(c7scc8c7C(=O)N(C7CCC(=O)NC7=O)C8=O)CC6)C5)CC4)ncc3Cl)ccc2n(C)c1=O (stereo unspecified) [US20250333410, Compound 67]",> 40 µM
4,"CNC(=O)COc1cc2cc(Nc3nc(N4CCC(N5CCN(c6cccc7c6n(C)c(=O)n7C6CCC(=O)NC6=O)CC5)C(F)(F)C4)ncc3Cl)ccc2n(C)c1=O (stereo unspecified) [US20250333410, Compound 77]",> 40 µM
5,"CNC(=O)COc1cc2cc(Nc3nc(N4CCC(CN5CCC(C6CCN(c7cccc8c(C9CCC(=O)NC9=O)nn(C)c78)CC6)CC5)CC4)ncc3Cl)ccc2n(C)c1=O (stereo unspecified) [US20250333410, Compound 8]",> 40 µM
6,"CC(=O)COc1cc2cc(Nc3nc(N4CCC(N5CCN(c6c(F)cc(C7CCC(=O)NC7=O)cc6F)CC5)C(F)(F)C4)ncc3Cl)ccc2n(C)c1=O (stereo unspecified) [US20250333410, Compound 76]",> 40 µM
7,"CC(=O)COc1cc2cc(Nc3nc(N4CC[C@@H](N5CCN(c6ccc(N[C@H]7CCC(=O)NC7=O)cc6F)CC5)C(F)(F)C4)ncc3Cl)ccc2n(C)c1=O [US20250333410, Compound 75]",> 40 µM
8,"CNC(=O)COc1cc2cc(Nc3nc(N4CC[C@H](N5CCN(c6ccc(N[C@@H]7CCC(=O)NC7=O)cc6F)CC5)C(F)(F)C4)ncc3Cl)ccc2n(C)c1=O [US20250333410, Compound 73]",> 40 µM
9,"CNC(=O)COc1cc2cc(Nc3nc(N4CC[C@@H](N5CCN(c6ccc(N[C@@H]7CCC(=O)NC7=O)cc6F)CC5)C(F)(F)C4)ncc3Cl)ccc2n(C)c1=O [US20250333410, Compound 72]",> 40 µM
10,"CCC(=O)COc1cc2cc(Nc3nc(N4CCC(N5CCN(c6cccc7c(C8CCC(=O)NC8=O)nn(C)c67)CC5)C(F)(F)C4)ncc3Cl)ccc2n(C)c1=O (stereo unspecified) [US20250333410, Compound 78]",> 40 µM
11,"CNC(=O)COc1cc2cc(Nc3nc(N4CCC(N5CCN(c6ccc(NC7CCC(=O)NC7=O)cc6F)CC5)C(F)(F)C4)ncc3Cl)ccc2n(C)c1=O (stereo unspecified) [US20250333410, Compound 71]",> 40 µM
